From patent US8178553B2, “Compounds for the treatment of inflammatory disorders” (Schering Corporation, priority 2006, dated 2012)
pKi: −log10 of the molar value.

biological target: T1, purified catalytic domain of recombinant human TACE (rhTACEc) (Homo sapiens, UniProt P78536, N452Q/S266A); assay: TACE kinetic assay, cleavage of internally quenched fluorescent peptide substrate SPDL-3; type: biochemical; conditions: Specific TACE inhibitory activity of representative compounds; read-out: Ki
T1 construct: rhTACEc, Residue 215 to 477 with two mutation (S266A and N452Q) and a 6xHis tail; 6xHis (C); made in house; host or cells: baculovirus/Hi5 insect cells
Description: TACE activity is determined by a kinetic assay measuring the rate of increase in fluorescent intensity generated by TACE catalyzed cleavage of an internally quenched peptide substrate (SPDL-3). […] It is purified from the baculovirus/Hi5 cells expression system using affinity chromatography. […] MCA is (7-Methoxycoumarin-4-yl)acetyl. Dpa is N-3-(2,4-Dinitrophenyl)-L-2,3-diaminopropionyl.
A 50 μl assay mixture contains 20 mM HEPES, pH 7.3, 5 mM CaCl2, 100 µM ZnCl2, 2% DMSO, 0.04% Methylcellulose, 30 μM SPDL-3, 70 pM rhTACEc and a test compound. RhTACEc is pre-incubated with the testing compound for 90 min. at 25° C. Reaction is started by addition of the substrate. […] Rate of enzymatic reaction is shown as Units per second. Effect of a test compound is shown as % of TACE activity in the absence of the compound.

T1 sequence (P78536 215-477 S266A/N452Q): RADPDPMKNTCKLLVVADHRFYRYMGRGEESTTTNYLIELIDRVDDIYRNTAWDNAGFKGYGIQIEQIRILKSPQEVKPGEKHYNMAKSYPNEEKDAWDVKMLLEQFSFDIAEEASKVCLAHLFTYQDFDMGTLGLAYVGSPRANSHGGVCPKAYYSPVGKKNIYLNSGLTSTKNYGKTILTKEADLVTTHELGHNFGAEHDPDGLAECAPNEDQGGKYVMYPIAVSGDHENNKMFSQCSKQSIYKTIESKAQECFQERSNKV

pKi | SMILES
9.59 | COc1ccc2c(c1)C(=O)N(C[C@@]1(c3ccc(S(C)(=O)=O)cc3)NC(=O)NC1=O)C2 [Compound 43]
8.98 | COc1ccc2c(c1)C(=O)N(C[C@@]1(c3cc4nc(S(C)(=O)=O)ccc4o3)NC(=O)NC1=O)C2 [Compound 50]
9.82 | COc1ccc2c(c1)C(=O)N(C[C@@]1(c3ccc(-c4cc(C(=O)NC5CC5)cc(C)n4)cc3)NC(=O)NC1=O)C2 [Compound 64]
10.05 | COc1ccc2c(c1)C(=O)N(C[C@@]1(c3ccc(-c4ncccc4C#N)cc3)NC(=O)NC1=O)C2 [Compound 66]
9.64 | COc1ccc2c(c1)C(=O)N(C[C@@]1(c3ccc(-c4cnc(N)c(C(N)=O)c4)cc3)NC(=O)NC1=O)C2 [Compound 68]

same assay, conditions: TACE inhibition, Table 1; read-out: Ki Rating

pKi | SMILES
7.00 to 8.00 | CCOC(=O)CC1(CN2Cc3ccc(OC)cc3C2=O)NC(=O)NC1=O (stereo not drawn) [Compound 1]
6.00 to 7.00 | COc1ccc2c(c1)C(=O)N(CC1(CC(=O)O)NC(=O)NC1=O)C2 (stereo not drawn) [Compound 2]
7.00 to 8.00 | COc1ccc2c(c1)C(=O)N(CC1(CC(=O)N3CCOCC3)NC(=O)NC1=O)C2 (stereo not drawn) [Compound 3]
7.00 to 8.00 | COc1ccc2c(c1)C(=O)N(CC1(CC(=O)N[C@@H](C)c3ccccc3)NC(=O)NC1=O)C2 (stereo partly drawn) [Compound 4]
> 8.00 | COc1ccc2c(c1)C(=O)N(CC1(CC(=O)N3CCCC3)NC(=O)NC1=O)C2 (stereo not drawn) [Compound 5]
7.00 to 8.00 | COc1ccc2c(c1)C(=O)N(CC1(CC(=O)NC3CCCCC3)NC(=O)NC1=O)C2 (stereo not drawn) [Compound 6]
7.00 to 8.00 | COc1ccc2c(c1)C(=O)N(CC1(CC(=O)NC(C)C)NC(=O)NC1=O)C2 (stereo not drawn) [Compound 7]
7.00 to 8.00 | CCN(CC)C(=O)CC1(CN2Cc3ccc(OC)cc3C2=O)NC(=O)NC1=O (stereo not drawn) [Compound 8]
> 8.00 | COc1ccc2c(c1)C(=O)N(CC1(CC(=O)N3CCCCC3)NC(=O)NC1=O)C2 (stereo not drawn) [Compound 9]
> 8.00 | COc1ccc2c(c1)C(=O)N(CC1(CC(=O)Nc3nc4ccccc4s3)NC(=O)NC1=O)C2 (stereo not drawn) [Compound 10]
7.00 to 8.00 | COc1ccc2c(c1)C(=O)N(CC1(CC(=O)NCC(C)C)NC(=O)NC1=O)C2 (stereo not drawn) [Compound 11]
7.00 to 8.00 | COc1ccc2c(c1)C(=O)N(CC1(CC(=O)NCC3CCCO3)NC(=O)NC1=O)C2 (stereo not drawn) [Compound 12]
7.00 to 8.00 | COc1ccc2c(c1)C(=O)N(CC1(CC(=O)N3CCN(C)CC3)NC(=O)NC1=O)C2 (stereo not drawn) [Compound 13]
> 8.00 | COc1ccc2c(c1)C(=O)N(CC1(CC(=O)N3CCC(Cc4ccccc4)CC3)NC(=O)NC1=O)C2 (stereo not drawn) [Compound 14]
> 8.00 | COc1ccc2c(c1)C(=O)N(CC1(CC(=O)N3CCc4ccccc4C3C3CC3)NC(=O)NC1=O)C2 (stereo not drawn) [Compound 15]
7.00 to 8.00 | COc1ccc2c(c1)C(=O)N(CC1(CC(=O)N3CCC(C#N)(c4ccccc4)CC3)NC(=O)NC1=O)C2 (stereo not drawn) [Compound 16]
7.00 to 8.00 | COc1ccc2c(c1)C(=O)N(CC1(CC(=O)N3Cc4ccccc4C3)NC(=O)NC1=O)C2 (stereo not drawn) [Compound 17]
> 8.00 | COc1ccc2c(c1)CN(CC1(c3ccc(C#CCN(C)C)cc3)NC(=O)NC1=O)C2=O (stereo not drawn) [Compound 18]
7.00 to 8.00 | CN(C)CC#Cc1ccc([C@]2(CN3Cc4ccc(O)cc4C3=O)NC(=O)NC2=O)cc1 [Compound 19]
> 8.00 | COc1ccc2c(c1)CN(CC1(c3ccc(C#CCO)cc3)NC(=O)NC1=O)C2=O (stereo not drawn) [Compound 20]
7.00 to 8.00 | COc1ccc2c(c1)C(=O)N(C[C@]1(c3ccc(C#Cc4ccccn4)cc3)NC(=O)NC1=O)C2 [Compound 21]
> 8.00 | COc1ccc2c(c1)C(=O)N(C[C@@]1(c3ccc(C#Cc4ccccn4)cc3)NC(=O)NC1=O)C2 [Compound 22]
> 8.00 | COc1ccc2c(c1)C(=O)N(C[C@@]1(c3ccc(-c4ccnc(C(N)=O)c4)cc3)NC(=O)NC1=O)C2 [Compound 23]

pKi | SMILES
7.00 to 8.00 | O=C1NC(=O)C(CN2Cc3ccsc3C2=O)(c2ccc(F)cc2)N1 (stereo not drawn) [Compound 26]
< 6.00 | O=C1NC(=O)C(CN2Cc3ncccc3C2=O)(c2ccc(F)cc2)N1 (stereo not drawn) [Compound 27]
7.00 to 8.00 | O=C1NC(=O)C(CN2Cc3c[nH]c(=O)cc3C2=O)(c2ccc(F)cc2)N1 (stereo not drawn) [Compound 29]
> 8.00 | COC(=O)c1ccc(C2(CN3Cc4ccc(OC)cc4C3=O)NC(=O)NC2=O)cc1 (stereo not drawn) [Compound 30]
> 8.00 | COc1ccc2c(c1)C(=O)N(CC1(c3ccc(C(=O)O)cc3)NC(=O)NC1=O)C2 (stereo not drawn) [Compound 32]
> 8.00 | COc1ccc2c(c1)C(=O)N(CC1(c3ccc(S(C)(=O)=O)cc3)NC(=O)NC1=O)C2 (stereo not drawn) [Compound 33]
7.00 to 8.00 | COc1ccc2c(c1)C(=O)N(CC1(c3ccc(C(=O)N(C)C)cc3)NC(=O)NC1=O)C2 (stereo not drawn) [Compound 34]
7.00 to 8.00 | N#Cc1ccc2c(c1)CN(CC1(c3ccc(F)cc3)NC(=O)NC1=O)C2=O (stereo not drawn) [Compound 35]
6.00 to 7.00 | O=C(O)Cc1ccc2c(c1)CN(CC1(c3ccc(F)cc3)NC(=O)NC1=O)C2=O (stereo not drawn) [Compound 36]
7.00 to 8.00 | NC(=O)Cc1ccc2c(c1)CN(CC1(c3ccc(F)cc3)NC(=O)NC1=O)C2=O (stereo not drawn) [Compound 37]
> 8.00 | COc1ccc2c(c1)C(=O)N(C[C@@]1(c3cc4cc(C#N)cnc4o3)NC(=O)NC1=O)C2 [Compound 38]
> 8.00 | COc1ccc2c(c1)C(=O)N(C[C@@]1(c3cc4cc(C(=O)O)cnc4o3)NC(=O)NC1=O)C2 [Compound 39]
7.00 to 8.00 | COC(=O)c1ccc([C@@]2(CN3Cc4ccc(OC)cc4C3=O)NC(=O)NC2=O)cc1 [Compound 40]
> 8.00 | COC(=O)c1ccc([C@]2(CN3Cc4ccc(OC)cc4C3=O)NC(=O)NC2=O)cc1 [Compound 41]
6.00 to 7.00 | COc1ccc2c(c1)C(=O)N(C[C@]1(c3ccc(S(C)(=O)=O)cc3)NC(=O)NC1=O)C2 [Compound 42]
> 8.00 | COc1ccc2c(c1)C(=O)N(C[C@@]1(c3ccc(S(C)(=O)=O)cc3)NC(=O)NC1=O)C2 [Compound 43]
> 8.00 | COc1ccc2c(c1)C(=O)N(C[C@@]1(c3cc4cc(S(C)(=O)=O)ccc4o3)NC(=O)NC1=O)C2 [Compound 44]
7.00 to 8.00 | COC(=O)c1ncccc1C(=O)C[C@]1(CN2Cc3ccc(OC)cc3C2=O)NC(=O)NC1=O [Compound 45]
> 8.00 | COc1ccc2c(c1)C(=O)N(C[C@@]1(c3cc4ncccc4n3C(=O)OC(C)(C)C)NC(=O)NC1=O)C2 [Compound 46]
7.00 to 8.00 | COc1ccc2c(c1)C(=O)N(C[C@@]1(CCc3ccc(F)c(C(N)=O)c3)NC(=O)NC1=O)C2 [Compound 47]
7.00 to 8.00 | COc1ccc2c(c1)C(=O)N(C[C@@]1(/C(Cc3c[nH]c(=O)c(C)c3)=N/O)NC(=O)NC1=O)C2 [Compound 48]
> 8.00 | COc1ccc2c(c1)C(=O)N(C[C@@]1(c3cc4nc(SC)ccc4o3)NC(=O)NC1=O)C2 [Compound 49]
> 8.00 | COc1ccc2c(c1)C(=O)N(C[C@@]1(c3cc4nc(S(C)(=O)=O)ccc4o3)NC(=O)NC1=O)C2 [Compound 50]

pKi | SMILES
> 8.00 | COc1ccc2c(c1)C(=O)N(C[C@@]1(c3ccc(-c4ccccc4C(N)=O)cc3)NC(=O)NC1=O)C2 [Compound 51]
> 8.00 | COC(=O)c1cc(-c2ccc([C@]3(CN4Cc5ccc(OC)cc5C4=O)NC(=O)NC3=O)cc2)cnc1N [Compound 52]
> 8.00 | COC(=O)c1cc(C)nc(-c2ccc([C@]3(CN4Cc5ccc(OC)cc5C4=O)NC(=O)NC3=O)cc2)c1 [Compound 53]
> 8.00 | COC(=O)c1cnc(-c2ccc([C@]3(CN4Cc5ccc(OC)cc5C4=O)NC(=O)NC3=O)cc2)cn1 [Compound 54]
> 8.00 | COC(=O)c1ccnc(-c2ccc(C3(CN4Cc5ccc(OC)cc5C4=O)NC(=O)NC3=O)cc2)c1 (stereo not drawn) [Compound 55]
> 8.00 | COc1ccc2c(c1)C(=O)N(C[C@@]1(c3ccc(-c4cncc(C(=O)NC5CC5)c4)cc3)NC(=O)NC1=O)C2 [Compound 56]
> 8.00 | COC(=O)c1cccnc1-c1ccc([C@]2(CN3Cc4ccc(OC)cc4C3=O)NC(=O)NC2=O)cc1 [Compound 57]
> 8.00 | COc1ccc2c(c1)C(=O)N(C[C@@]1(c3ccc(-c4cncc(C(N)=O)c4)cc3)NC(=O)NC1=O)C2 [Compound 58]
> 8.00 | COc1ccc2c(c1)C(=O)N(C[C@@]1(c3ccc(-c4cc(C(N)=O)ccn4)cc3)NC(=O)NC1=O)C2 [Compound 59]
> 8.00 | COc1ccc2c(c1)C(=O)N(C[C@@]1(c3ccc(-c4cc(C(=O)NC5CC5)ccn4)cc3)NC(=O)NC1=O)C2 [Compound 60]
> 8.00 | CNC(=O)c1cccnc1-c1ccc([C@]2(CN3Cc4ccc(OC)cc4C3=O)NC(=O)NC2=O)cc1 [Compound 61]
> 8.00 | COc1ccc2c(c1)C(=O)N(C[C@@]1(c3ccc(-c4ncccc4C(=O)NC4CC4)cc3)NC(=O)NC1=O)C2 [Compound 62]
> 8.00 | COc1ccc2c(c1)C(=O)N(C[C@@]1(c3ccc(-c4ncccc4C(=O)N(C)C)cc3)NC(=O)NC1=O)C2 [Compound 63]
> 8.00 | COc1ccc2c(c1)C(=O)N(C[C@@]1(c3ccc(-c4cc(C(=O)NC5CC5)cc(C)n4)cc3)NC(=O)NC1=O)C2 [Compound 64]
> 8.00 | COc1ccc2c(c1)C(=O)N(C[C@@]1(c3ccc(-c4cnc(N)c(C(=O)NC5CC5)c4)cc3)NC(=O)NC1=O)C2 [Compound 65]
> 8.00 | COc1ccc2c(c1)C(=O)N(C[C@@]1(c3ccc(-c4ncccc4C#N)cc3)NC(=O)NC1=O)C2 [Compound 66]
> 8.00 | COc1ccc2c(c1)C(=O)N(C[C@@]1(c3ccc(-c4cc(C(N)=O)cc(C)n4)cc3)NC(=O)NC1=O)C2 [Compound 67]
> 8.00 | COc1ccc2c(c1)C(=O)N(C[C@@]1(c3ccc(-c4cnc(N)c(C(N)=O)c4)cc3)NC(=O)NC1=O)C2 [Compound 68]
> 8.00 | CCNC(=O)c1cnc(-c2ccc([C@]3(CN4Cc5ccc(OC)cc5C4=O)NC(=O)NC3=O)cc2)cn1 [Compound 70]
> 8.00 | COc1ccc2c(c1)C(=O)N(C[C@@]1(c3ccc(-c4cnc(C(=O)NC5CC5)cn4)cc3)NC(=O)NC1=O)C2 [Compound 71]
> 8.00 | COc1ccc2c(c1)C(=O)N(C[C@@]1(c3ccc(-c4cnc(C(=O)NCC(F)(F)F)cn4)cc3)NC(=O)NC1=O)C2 [Compound 72]
